Values after ≈ are worked out from the molar mass of the structure shown. Where two headings read alike, the source gives them in different places. Marks after values point to notes of the source that are not given here.
Assays:
S. aureus = assay: Broth microdilution MIC (Example 11); format: cell-based, Staphylococcus aureus
S. aureus ATCC 29213 [1] = assay: MIC control strain; settings: QC organism, Example 13
[2] = tested on: Anaerobes (Bacteroides fragilis, Clostridium difficile); assay: Agar dilution MIC (Example 11); format: cell-based
Procedure: The susceptibility of anaerobic bacteria was determined by agar dilution using Brucella Agar (BD/BBL; Lot No. 5237692) supplemented with 5 μg/mL hemin (Sigma, St. Louis, Mo.; Lot No. 108K1088), 1 μg/mL Vitamin K1 and 5% (v/v) laked sheep blood (Cleveland Scientific, Bath, Ohio; Lot No. 322799).
Agar Dilution MIC Testing (Anaerobic Bacteria and Gonococci): MIC values for anaerobic bacteria were determined using a reference agar dilution method as described by CLSI (6). Organisms were grown at 35° C. in the Bactron II Anaerobic Chamber (Shel Lab, Cornelius, Oreg.) for approximately 48 hr prior to the assay. Drug dilutions and drug-supplemented agar plates were prepared manually per CLSI (6). The plates were allowed to stand at room temperature for 1 hr to allow the agar surface to dry and pre-reduced for approximately 1 hr in the anaerobe chamber prior to inoculation. Each isolate was suspended to the equivalent of a 0.5 McFarland standard in Brucella broth using a turbidity meter (Dade Behring MicroScan, West Sacramento, Calif.). Each bacterial cell suspension was then diluted 1:10 in Brucella broth and transferred to wells in a stainless steel replicator block which was used to inoculate the test plates. The prongs on the replicator deliver approximately 1-2 μl of inoculum to an agar surface. The resulting inoculum spots contained approximately 1×10^5 CFU/spot. After the inoculum dried, the inoculated drug-supplemented agar plates and no drug growth control plates were incubated at 35° C. for 42-48 hr in the anaerobe chamber. The MIC was read per CLSI guidelines (6).

E. coli ATCC 25922 [3] = assay: MIC control strain; settings: QC organism, Example 13
Candida krusei = assay: Antifungal broth microdilution (Example 13); format: cell-based; settings: for MIC: Pichia kudriavzevii
[4] = tested on: C. parapsilosis ATCC 22019; assay: Antifungal broth microdilution (Example 13), QC organism; format: cell-based, Candida parapsilosis; settings: 24 hr, first of two values x/y (footnote b not given, presumably MIC2)
B. cenocepacia = assay: MIC testing of CF isolates; format: cell-based, Burkholderia cenocepacia; settings: strain AU197
[5] = tested on: P. aeruginosa and A. baumannii; assay: Broth microdilution MIC (Example 11); format: cell-based, Pseudomonas aeruginosa, Acinetobacter baumannii; settings: read-out: MIC values
S. aureus ATCC 29213 [6] = settings: CLSI established QC range; cited from earlier work
E. coli ATCC 25922 [7] = settings: cited from earlier work
[8] = tested on: MucilAir fully differentiated human airway epithelium
CYP = settings: liver microsome (CYP) and hepatocyte
Escherichia coli = assay: Broth microdilution MIC (Example 12); format: cell-based

Q: For `CC(S)C(C)S.[Bi]` (stereo not shown) [BisBDT, bismuth-2,3-butanedithiol], which MIC (S. aureus; S. aureus MMX 5373, MRSA, Lev^R Cip^R CC^R Ery^R Ox^R) is on record?
A: The MIC was no more than 0.06 µg/mL.

Q: What about the MIC (S. aureus; S. aureus MMX 6311, MRSA, Lev^R Cip^R CC^R Ery^R Ox^R) of the same compound?
A: The MIC was no more than 0.06 µg/mL.

Q: What about the MIC (S. aureus; S. aureus MMX 9204, MRSA, Lev^R Cip^R Ery^R Ox^R) of the same compound?
A: The MIC was no more than 0.06 µg/mL.

Q: What about the MIC (S. aureus; S. aureus MMX 9205, MRSA, Lev^R Cip^R CC^R Ery^R Ox^R) of the same compound?
A: Its MIC is no more than 0.06 µg/mL.

Q: What about the MIC (S. aureus; Staphylococcus aureus, ATCC 29213 / MSSA) of the same compound?
A: Its MIC is no more than 0.06 µg/mL.

Q: And the “MIC 24 hr” value (S. aureus ATCC 29213 [1])?
A: The value was 1^a.

Q: What about the MIC ([2]; Bacteroides fragilis, ATCC25285, B. fragilis MMX 123 (ATCC 25285), QC, read-out: MIC) of the same compound?
A: Its MIC is 1 µg/mL.

Q: And the MIC ([2]; Bacteroides fragilis, agar dilution, read-out: MIC values)?
A: Its MIC is 1 to 4 µg/mL.

Q: And the MIC ([2]; C. difficile MMX 5680 (NCTC 13336), ribotype 027, CC^1 MET^R, read-out: MIC)?
A: The MIC was 2 µg/mL.

Q: And the MIC ([2]; C. difficile MMX 8272, ribotype 255, CC^1, read-out: MIC)?
A: Its MIC is 2 µg/mL.

Q: What about the MIC ([2]; C. difficile MMX 8279, ribotype 005, CC^R, read-out: MIC) of the same compound?
A: The MIC was 2 µg/mL.

Q: What about the MIC ([2]; C. difficile MMX 8281, ribotype 010, CC^R, read-out: MIC) of the same compound?
A: The MIC was 2 µg/mL.

Q: And the “MIC 24 hr” value (E. coli ATCC 25922 [3])?
A: Its value is 0.5^a.

Q: And the MIC 24 hr (Candida krusei; C. krusei ATCC 6258, first of two values x/y (footnote b not given, matches MIC2 of Table 107))?
A: The MIC 24 hr was 0.5 µg/mL.

Q: And the MIC 24 hr (Candida krusei; C. krusei ATCC 6258, second of two values x/y (footnote b not given, matches MIC0 of Table 107))?
A: The MIC 24 hr was 1 µg/mL.

Q: And the MIC 48 hr (Candida krusei; C. krusei ATCC 6258, 48 hr, first of two values x/y (footnote b not given, presumably MIC2))?
A: The MIC 48 hr was 1 µg/mL.

Q: What about the MIC (Candida krusei; C. krusei MMX 7125, Susceptible, 50% inhibition, read-out: MIC2) of the same compound?
A: Its MIC is 0.5 µg/mL.

Q: And the MIC (Candida krusei; C. krusei MMX 7125, Susceptible, complete inhibition, read-out: MIC0)?
A: The MIC was 1 µg/mL.

Q: And the MIC (Candida krusei; C. krusei MMX 7141, Susceptible, 50% inhibition, read-out: MIC2)?
A: Its MIC is 1 µg/mL.

Q: What about the MIC (Candida krusei; C. krusei MMX 7141, Susceptible, complete inhibition, read-out: MIC0) of the same compound?
A: Its MIC is 2 µg/mL.

Q: What about the MIC (Candida krusei; C. krusei MMX 7155, Susceptible, 50% inhibition, read-out: MIC2) of the same compound?
A: Its MIC is 0.5 µg/mL.

Q: What about the MIC (Candida krusei; C. krusei MMX 7155, Susceptible, complete inhibition, read-out: MIC0) of the same compound?
A: Its MIC is 1 µg/mL.

Q: And the MIC (Candida krusei; C. krusei MMX 7563, Susceptible, 50% inhibition, read-out: MIC2)?
A: Its MIC is 0.5 µg/mL.

Q: And the MIC (Candida krusei; C. krusei MMX 7563, Susceptible, complete inhibition, read-out: MIC0)?
A: Its MIC is 1 µg/mL.

Q: And the MIC (Candida krusei; C. krusei MMX 9878, MICA-I, VORI-I, 50% inhibition, read-out: MIC2)?
A: Its MIC is 0.5 µg/mL.

Q: What about the MIC (Candida krusei; C. krusei MMX 9878, MICA-I, VORI-I, complete inhibition, read-out: MIC0) of the same compound?
A: Its MIC is 1 µg/mL.

Q: And the MIC (Candida krusei; […], complete inhibition, read-out: MIC0)?
A: The MIC was 1 µg/mL.

Q: And the MIC (Candida krusei; read-out: MIC2)?
A: Its MIC is 0.5 µg/mL.

Q: And the MIC 24 hr [4]?
A: The MIC 24 hr was 1 µg/mL.

Q: And the MIC (B. cenocepacia)?
A: The MIC was 4 µg/mL.

Q: What about the MIC [5] of the same compound?
A: Its MIC is 0.5 to 2 µg/mL.

Q: Which results are given for `C1C[S][Bi]([S]CC[S][Bi]2[S]CC[S]2)[S]1` [BisEDT, Bismuth-1,2-ethanedithiol]?
A: QC range of MIC (S. aureus ATCC 29213 [6]): (0.12-1) μg/mL; QC Range 24 hr (E. coli ATCC 25922 [7]; E. coli ATCC 25922, established QC range, 24 hr): 0.5-4; Expected MIC: goal (acceptable range) (E. coli ATCC 25922 [7]; control strain ATCC 25922): 1 µg/mL; LDH release ([8]; BisEDT in solution 0.001-30 μM, 1, 8, 24, 48 h): not altered; LDH release (cytotoxicity) ([8]; solid, 1 μg/cm^2, 8, 24 and 48 h): time- and dose-dependent cytotoxicity; LDH release ([8]; solid, 1 μg/cm^2, 1 hour): No significant effect; LDH release ([8]; solid, 0.033 and 0.33 μg/cm^2, all time points): No significant effect; effect on liver cell metabolism (inhibition or induction of standard substrates) (CYP): no significant effect

Q: Which results are given for `C[C@@H](O)[C@H]1C(=O)N2C(C(=O)O)=C(S[C@@H]3CN[C@H](C(=O)N(C)C)C3)[C@H](C)[C@H]12` [MEM]?
A: MIC (Escherichia coli; E. coli ATCC 25922, ATCC QC organism (Table 102)): ≤0.008 µg/mL; MIC (Escherichia coli; E. coli ATCC 35218, ATCC QC organism (Table 102)): ≤0.008 µg/mL; MIC (Escherichia coli; E. coli ATCC 35218, ESBL): ≤0.008 µg/mL; MIC (Escherichia coli; E. coli ATCC BAA-2471, NDM): >8 µg/mL; MIC (Escherichia coli; E. coli CDC 114, ESBL/KPC): 2 µg/mL (≈ 5.22 µM); MIC (Escherichia coli; E. coli CDC 118, ESBL/NDM): 0.06 µg/mL (≈ 0.156 µM); MIC (Escherichia coli; E. coli CDC 435, NDM): >8 µg/mL; MIC (Escherichia coli; E. coli CDC 451, KPC): 1 µg/mL (≈ 2.61 µM); MIC (Escherichia coli; E. coli CDC 503, ESBL/NDM): 8 µg/mL (≈ 20.9 µM); MIC (Escherichia coli; E. coli MMX 5745, KPC): 2 µg/mL (≈ 5.22 µM); MIC (Escherichia coli; E. coli MMX 5755, ESBL): 0.015 µg/mL (≈ 0.0391 µM); MIC (Escherichia coli; E. coli MMX 5756, ESBL): ≤0.008 µg/mL; MIC (Escherichia coli; E. coli MMX 5758, ESBL): ≤0.008 µg/mL

Source: patent US20230124862A1, “BISMUTH THIOL COMPOUNDS AND COMPOSITIONS AND METHODS OF TREATING MICROBIAL CO-INFECTIONS” (Microbion Corporation, priority 2020, published 2023)
